For assay [1], the system named is plasma. Kind of assay: Anticoagulant activity: thrombin time (TT), Sysmex CA-1500. It counts as biochemical, human. Particulars: 20 μl sample + 80 μl plasma, number in label = g/dL. On the procedure:
(§1) Antithrombotic (anticoagulant) activity was evaluated according to a previously reported method. Each of thromborel S, actin and thrombin, which are reagents for Sysmex CA-1500 for analysis of PT, aPTT and TT, was mounted in Sysmex CA-1500 (Siemens Healthcare, Germany) which is an automated blood coagulation test device. According to the automated procedure of the test device, clotting time (sec) (prothrombin time (PT), activated partial thromboplastin time (aPTT) and thrombin time (TT)) was measured. A sufficient amount of a sample for each of the three analyses was about 400 uL of an 80:20 mixture of plasma and a test substance.
(§2) The isolated plasma was used in an experiment in a fresh state within 5-6 hours.
(§3) In this experiment, for the relative comparison of the measured clotting time (sec) (PT, aPTT and TT) between test groups, clotting time prolongation (%) relative to triple distilled water (purified water) that is a normal control test sample was statistically analyzed. For statistical analysis, the […] anticoagulant activities of test materials were comparatively analyzed using SPSS IBM version 21.0 by one-way ANOVA at p<0.05, and significance comparison between groups was performed by Duncan's test.
(§4) The aspirin solution was immediately used at room temperature in a light-shielded state or was cold-stored.
(§5) As a control, aspirin was used, and as a vehicle control, triple distilled water (purified water) was used instead of the sample.

Assay [2] concerns plasma. Kind of assay: Anticoagulant activity: activated partial thromboplastin time (aPTT), Sysmex CA-1500. Particulars: 20 μl sample + 80 μl plasma, number in label = g/dL. The assay is classed as biochemical, human. On the procedure: as §1, §2, §3, §4, §5
For assay [3], the system named is plasma. Kind of assay: Anticoagulant activity: prothrombin time (PT), Sysmex CA-1500. The conditions noted are these: 20 μl sample + 80 μl plasma, number in label = g/dL. It counts as biochemical, human. How it is done: as §1, §2, §3, §4, §5
Assay [4] can be described thus: Body weight and body weight gain of high-fat diet mice. The conditions noted are these: for Body weight / Body weight gain: high-fat diet mice, mean. The assay is classed as in vivo, mice (C57BL/6). How it is done:
(§6) Using 8-week-old male mice (C57BL/6) (purchased from CoreTech), anti-diabetic candidate materials were evaluated using a GTT (Glucose Tolerance Test) that is a typical method for diagnosis of diabetes.
(§7) Mice were housed at a temperature of 22±2° C. and a relative humidity of 55-60% with 12-hr light/12-hr dark cycles. Five animals were allotted to each group, and mice from the same mother were grouped into one group, because male mice tend to fight together.
(§8) As feed, high-fat diet (60% of calories from fat; Research Diet Inc., New Brunswick, N.J.) and water were fed ad libitum for 10 weeks. Herein, the water fed contained the samples prepared in Examples 1-2 (3), 2-1, 2-4-1, 2-4-2 and 2-5. As a positive control, metformin (M-072, Sigma) (250 mg/kg) was used, and as a control, the samples prepared in Comparative Examples 1-1, 2-3-2, 2-5-1, 2-5-2 and 2-6 were used.
(§9) For reference, each of the samples prepared in Examples 2-4-1, 2-4-2 and 2-5 was set to the amount to be taken by an adult (60 kg) for 3 days, and the amount was converted into a mouse dose (12-fold/kg, see the US NIH guidance), thereby preparing animal feed. Namely, the amount to be taken by an adult (60 kg) for 3 days is 180-day dose/kg, which corresponds to 15-day dose/kg for mice. Thus, the amount corresponds to 750-day dose/mouse (20 g), because the average weight of mice is about 20 g. Thus, one mouse was allowed to take 1/750 of the prepared sample each day.
(§10) In addition, each of the samples prepared in Examples 1-2 (3) and 2-1 was set to the amount to be taken by an adult (60 kg) for 2 days, and the amount was converted into a mouse dose (12-fold/kg, see the US NIH guidance), thereby preparing animal feed. Namely, the amount to be taken by an adult (60 kg) for 2 days is 120-day dose/kg, which corresponds to 10-day dose/kg for mice. Thus, the amount corresponds to 500-day dose/mouse (20 g), because the average weight of mice is about 20 g. Thus, one mouse was allowed to take 1/500 of the prepared sample each day.
The diet intake and the body weight gain were measured weekly for 8 weeks. The body weight and the diet intake were measured immediately before first drug administration, and then measured at one-week intervals.
(§11) Meanwhile, experimental analysis results were expressed as mean±S.E.M., and the significance between test groups was statistically processed using Student T-TEST, and then the significance was verified at *P<0.05.

Assay [5] has as its system male mice (C57BL/6), high-fat diet. Briefly: Glucose tolerance test (GTT) at 8 weeks of high-fat diet feeding. The assay is classed as in vivo. On the procedure: as §6, §7, §8, §9, §10
At 8 weeks of high-fat diet feeding, a glucose tolerance test (GTT) was performed. For 8 hours for the test, mice were fasted. Then, blood was sampled from the tail vein, and initial blood glucose levels were measured with a blood glucose meter (AUTO-CHEK, Diatech Korea). Then, glucose was administered intraperitoneally to the mice at a concentration of 1 g/kg, and after 30 min, 60 min, 90 min and 120 min, blood was sampled from the mice, followed by measurement of blood glucose levels (each group consisting of five animals).
as §11

Molecules are shown by their SMILES. Where “and” joins values, the source holds several entries; their conditions need not be identical. Identical values can stand only once.

`O=C[C@@H](O)[C@H](O)[C@H](O)CO` [Ara, arabinose]: the “TT clotting time prolongation relative to purified water, Mean” value with plasma [1] (Table 18, listed as Ara 5.2) amounted to 13.40%; in the assay with plasma [1] (Table 18, listed as Ara 7.8), 22.92%.

With `CC(=O)Oc1ccccc1C(=O)O` [Asp 7.5 mg/ml, aspirin], the figures for the “aPTT clotting time prolongation relative to purified water, Mean” value in the assay on plasma [2] (Table 18), in the assay with plasma [2] (Table 19) and with plasma [2] (Table 20) were 7.31%, 16.28% and 29.82%, respectively. Further, the “TT clotting time prolongation relative to purified water, Mean” value in the assay on plasma [1] (Table 18) is 13.59%; in the assay on plasma [1] (Table 19, values excluding one sample showing an extreme value), 20.96%; in the assay with plasma [1] (Table 20), 23.95%. Also, the figures for the “PT clotting time prolongation relative to purified water, Mean” value in the assay on plasma [3] (Table 18), in the assay on plasma [3] (Table 19) and in the assay on plasma [3] (Table 20) were 9.90%, 17.51% and 26.02%, respectively.

With `O=C(CO)[C@@H](O)[C@H](O)[C@H](O)CO` [Fruc, fructose], the “aPTT clotting time prolongation relative to purified water, Mean” value was −0.20% in the assay on plasma [2] (Table 20) and 0.58% in the assay on plasma [2] (Table 20, listed as Fruc 12.4). In addition, the “TT clotting time prolongation relative to purified water, Mean” value is on record as 13.19% in the assay with plasma [1] (Table 20, listed as Fruc 6.2) and 30.07% in the assay on plasma [1] (Table 20, listed as Fruc 12.4). The “PT clotting time prolongation relative to purified water, Mean” value with plasma [3] (Table 20) is given as 0.54%.

In the case of `O=C[C@H](O)[C@@H](O)[C@H](O)[C@H](O)CO` [Gluc, glucose], the “aPTT clotting time prolongation relative to purified water, Mean” value in the assay on plasma [2] (Table 19, listed as Gluc 6.2) came to 2.22%; in the assay with plasma [2] (Table 19, listed as Gluc 12.4), 2.89%. Moreover, the “TT clotting time prolongation relative to purified water, Mean” value in the assay on plasma [1] (Table 19, values excluding one sample showing an extreme value, listed as Gluc 6.2) was found to be 16.24%; in the assay with plasma [1] (Table 19, values excluding one sample showing an extreme value, listed as Gluc 12.4), 27.82%. The “PT clotting time prolongation relative to purified water, Mean” value with plasma [3] (Table 19, listed as Gluc 6.2) is 1.69%; in the assay on plasma [3] (Table 19, listed as Gluc 12.4), 2.26%.

Take `O=C[C@@H](O)[C@@H](O)[C@H](O)[C@H](O)CO` [Mann, mannose]: the “aPTT clotting time prolongation relative to purified water, Mean” value in the assay on plasma [2] (Table 20, listed as Mann 3.1) turned out to be 0.65%; with plasma [2] (Table 20, listed as Mann 6.2) it was 1.24%; in the assay with plasma [2] (Table 20, listed as Mann 12.4), 7.98%. The “TT clotting time prolongation relative to purified water, Mean” value is on record as 11.67% in the assay on plasma [1] (Table 20, listed as Mann 3.1); 22.74% in the assay on plasma [1] (Table 20, listed as Mann 6.2); 47.87% with plasma [1] (Table 20, listed as Mann 12.4). Further, the “PT clotting time prolongation relative to purified water, Mean” value in the assay with plasma [3] (Table 20, listed as Mann 3.1) was determined as 2.71%; in the assay with plasma [3] (Table 20, listed as Mann 6.2), 5.96%; in the assay on plasma [3] (Table 20, listed as Mann 12.4), 13.55%.

As for `CN(C)C(=N)N=C(N)N` [Metformin, metformin], the “Body weight” value was 21.00 g in assay [4] (1 week); 22.78 g and 26.344 g in assay [4] (2 weeks); 23.84 g in assay [4] (3 weeks); 25.18 g in assay [4] (4 weeks); 25.72 g in assay [4] (5 weeks); 26.34 g in assay [4] (6 weeks). Moreover, the entries for the “Body weight” value in assay [4] (7 weeks), in assay [4] (8 weeks) and in assay [4] (Before admis.) were 27.52 g, 28.20 g and 19.30 g, respectively. For the same compound, the “Body weight gain” value in assay [4] (2 weeks) is 3.48 g; in assay [4] (3 weeks), 4.54 g; in assay [4] (4 weeks), 5.88 g and 4.600 g; in assay [4] (5 weeks) it was 6.42 g; in assay [4] (6 weeks), 7.04 g; in assay [4] (7 weeks), 8.22 g. Also, the “Weight, Mean” value in assay [4] (HFD mice, sample in drinking water, 1 week) is recorded as 21.00 g; in assay [4] (HFD mice, sample in drinking water, 6 weeks), 26.34 g. Besides, the “Glucose level, 0 min” value in assay [5] (GTT, high-fat diet mice, 0 min (fasting, before administration), mean) stood at 144.20 mg/dL. Besides, the “Glucose level, 30 min” value in assay [5] (GTT, high-fat diet mice, 30 min, mean) worked out at 386.40 mg/dL. Further, the “Glucose level, 60 min” value in assay [5] (GTT, high-fat diet mice, 60 min, mean) came out at 301.40 mg/dL. Further, in assay [5] (GTT, high-fat diet mice, 90 min, mean), the “Glucose level, 90 min” value worked out at 194.40 mg/dL. In assay [5] (GTT, high-fat diet mice, 120 min, mean), the “Glucose level, 120 min” value is 135.20 mg/dL.

For `O=C[C@H](O)[C@H](O)[C@H](O)CO` [Rib, ribose], the “TT clotting time prolongation relative to purified water, Mean” value with plasma [1] (Table 19, values excluding one sample showing an extreme value, listed as Rib 5.2) turned out to be 23.15%; in the assay on plasma [1] (Table 19, values excluding one sample showing an extreme value, listed as Rib 10.4), 52.50%.

`NCCS(=O)(=O)O` [Tau, taurine]: in assay [4] (HFD mice, sample in drinking water, 8 weeks), the “Body weight gain, Mean” value was 9.52 g. In assay [4] (at 8 weeks after high-fat diet feeding, in words), the “body weight gain compared to the group administered with high-fat diet (HFD) alone” value was “significant reduction in body weight gain”. The fasting glucose level result in assay [5] (8 h fasted, 8 weeks of HFD, in words, comparator in the value) was “all lower than that of the mice administered with high-fat diet (HFD), and were similar to the blood glucose levels of normal mice”. Also, in assay [5] (glucose 1 g/kg i.p., 8 weeks of HFD, in words, comparator in the value), the “glucose control ability in GTT” value is on record as “significantly higher than that of the group administered with HFD alone”.

Turning to `O=C[C@H](O)[C@@H](O)[C@H](O)CO` [Xyl, xylose], the “TT clotting time prolongation relative to purified water, Mean” value with plasma [1] (Table 18, listed as Xyl 1.04) is 2.68%; in the assay with plasma [1] (Table 18, listed as Xyl 5.2), 14.59%; in the assay with plasma [1] (Table 18, listed as Xyl 7.8), 24.41%.

Source of the values: patent US20190152905A1 (priority 2016, published 2019).
